Each structure is given as a SMILES string. A value given as a limit tells only on which side of the number the result lay.

For orientation: EC50 means the concentration at which the effect is half-maximal.

Sequence of DCN1 (Q96GG9 whole entry): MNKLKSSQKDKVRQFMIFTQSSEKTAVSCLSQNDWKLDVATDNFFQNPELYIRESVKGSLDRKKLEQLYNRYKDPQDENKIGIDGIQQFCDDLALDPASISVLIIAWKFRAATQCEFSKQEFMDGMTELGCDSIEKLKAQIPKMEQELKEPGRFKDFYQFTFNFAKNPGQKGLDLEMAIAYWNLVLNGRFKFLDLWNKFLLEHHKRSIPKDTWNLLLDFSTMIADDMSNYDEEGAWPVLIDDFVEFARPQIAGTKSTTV

The target in the assay is DCN1 (Homo sapiens (Human), UniProt Q96GG9). Kind of assay: TR-FRET binding assay (biotin-DCN1 / Ac-UBE2M12-AlexaFluor488). The conditions noted are these: mean ± SD (n); read-out: DCN1_TRFRET Mean EC50. The procedure:
• IC50 values were generated using our TR-FRET binding assay and are represented as the mean of three replicates with errors reported as the standard deviation.
The assay cocktail was then incubated for 1 h at room temperature and distributed using a WellMate instrument (Matrix). Compounds to be screened were added to assay plates from DMSO stock solutions by pin transfer using 50SS pins (V&P Scientific). […] All compounds were tested in triplicate or more.
For orientation: In TR-FRET formats the signal depends on donor and acceptor labels being close together.
Regarding `CCN1C(=O)[C@@H](NC(=O)c2cccc(C)c2)[C@@H](c2ccc(F)cc2)c2c(CN)nn(-c3ccccc3)c21` [RG-0009512, N-[(4S,5S)-3-(aminomethyl)-7-ethyl-4-(4-fluorophenyl)-6-oxo-1-phenyl-1H,4H,5H,6H,7H-pyrazolo[3,4-b]pyridin-5-yl]-3-methylbenzamide], the concentration for a half-maximal effect (EC50) is 171 ± 17.9 nM.

On to `CCN1C(=O)[C@@H](NC(=O)c2cccc(C)c2)[C@@H](c2ccc(F)nc2)c2c(C)nn(-c3ccccc3)c21` [RG-0009513, N-[(4S,5S)-7-ethyl-4-(6-fluoropyridin-3-yl)-3-methyl-6-oxo-1-phenyl-1H,4H,5H,6H,7H-pyrazolo[3,4-b]pyridin-5-yl]-3-methylbenzamide], for which the concentration for a half-maximal effect (EC50) came out at 255 ± 28.2 nM.

As for `CCCN1C(=O)[C@@H](N(CCC)C(=O)c2cccc(C(F)(F)F)c2)[C@@H](c2ccc(F)cc2)c2c(C)nn(-c3ccccc3)c21` [RG-0009516, N-[(4S,5S)-4-(4-fluorophenyl)-3-methyl-6-oxo-1-phenyl-7-propyl-1H,4H,5H,6H,7H-pyrazolo[3,4-b]pyridin-5-yl]-N-propyl-3-(trifluoromethyl)benzamide], the EC50 was above 36500 nM. Consider `CCOC1=Nc2c(c(C)nn2-c2ccccc2)[C@H](c2ccc(F)cc2)[C@@H]1NC(=O)c1cccc(C(F)(F)F)c1` [RG-0009518, N-[(4S,5S)-6-ethoxy-4-(4-fluorophenyl)-3-methyl-1-phenyl-1H,4H,5H-pyrazolo[3,4-b]pyridin-5-yl]-3-(trifluoromethyl)benzamide], for which the EC50 was above 36500 nM. For `Cc1nn(-c2ccccc2)c2c1[C@H](c1ccc(F)cc1)[C@H](NC(=O)c1cccc(C(F)(F)F)c1)C(=O)N2C1CCC1` [RG-0013050, N-[(4S,5S)-7-cyclobutyl-4-(4-fluorophenyl)-3-methyl-6-oxo-1-phenyl-1H,4H,5H,6H,7H-pyrazolo[3,4-b]pyridin-5-yl]-3-(trifluoromethyl)benzamide], the EC50 was determined as 2580 ± 247 nM. As for `CCN1C(=O)[C@@H](NC(=O)c2cc(C)cc(F)c2)[C@@H](c2ccc(F)cc2)c2c(C)nn(-c3ccccc3)c21` [RG-0013053, N-[(4S,5S)-7-ethyl-4-(4-fluorophenyl)-3-methyl-6-oxo-1-phenyl-1H,4H,5H,6H,7H-pyrazolo[3,4-b]pyridin-5-yl]-3-fluoro-5-methylbenzamide], the figure is 2330 ± 105 nM. As for `C#CCOCc1nn(-c2ccccc2)c2c1[C@H](c1ccc(F)cc1)[C@H](NC(=O)c1cccc(C)c1)C(=O)N2CC` [RG-0013055, N-[(4S,5S)-7-ethyl-4-(4-fluorophenyl)-6-oxo-1-phenyl-3-[(prop-2-yn-1-yloxy)methyl]-1H,4H,5H,6H,7H-pyrazolo[3,4-b]pyridin-5-yl]-3-methylbenzamide], the EC50 turned out to be 168 ± 8.1 nM. Then `CCN1C(=O)[C@@H](NC(=O)c2cccc(I)c2)[C@@H](c2ccc(F)cc2)c2c(C)nn(-c3ccccc3)c21` [RG-0013060, N-[(4S,5S)-7-ethyl-4-(4-fluorophenyl)-3-methyl-6-oxo-1-phenyl-1H,4H,5H,6H,7H-pyrazolo[3,4-b]pyridin-5-yl]-3-iodobenzamide], with 461 ± 29.4 nM.

Consider `CCN1C(=O)[C@@H](NC(=O)c2cccc(Br)c2)[C@@H](c2ccc(F)cc2)c2c(C)nn(-c3ccccc3)c21` [RG-0013061, 3-bromo-N-[(4S,5S)-7-ethyl-4-(4-fluorophenyl)-3-methyl-6-oxo-1-phenyl-1H,4H,5H,6H,7H-pyrazolo[3,4-b]pyridin-5-yl]benzamide], for which the EC50 amounted to 485 ± 41.1 nM. In the case of `CCN1C(=O)[C@@H](NC(=O)c2cccc(F)c2)[C@@H](c2ccc(F)cc2)c2c(C)nn(-c3ccccc3)c21` [RG-0013062, N-[(4S,5S)-7-ethyl-4-(4-fluorophenyl)-3-methyl-6-oxo-1-phenyl-1H,4H,5H,6H,7H-pyrazolo[3,4-b]pyridin-5-yl]-3-fluorobenzamide], the EC50 stood at 1810 ± 153 nM.

On to `C=CC(=O)NCc1nn(-c2ccccc2)c2c1[C@H](c1ccc(F)cc1)[C@H](NC(=O)c1cccc(C)c1)C(=O)N2CC` [RG-0013063, N-[(4S,5S)-7-ethyl-4-(4-fluorophenyl)-6-oxo-1-phenyl-3-[(prop-2-enamido)methyl]-1H,4H,5H,6H,7H-pyrazolo[3,4-b]pyridin-5-yl]-3-methylbenzamide], for which the EC50 was 96.8 ± 7.21 nM. As for `CCN1C(=O)[C@@H](NS(=O)(=O)c2cccc(C(F)(F)F)c2)[C@@H](c2ccc(F)cc2)c2c(C)nn(-c3ccccc3)c21` [RG-0013808, N-[(4S,5S)-7-ethyl-4-(4-fluorophenyl)-3-methyl-6-oxo-1-phenyl-1H,4H,5H,6H,7H-pyrazolo[3,4-b]pyridin-5-yl]-3-(trifluoromethyl)benzene-1-sulfonamide], the figure is above 36500 nM; as for `CCN1C(=O)[C@@H](N)[C@@H](c2ccc(F)cc2)c2c(C)nn(-c3ccccc3)c21` [RG-0013837, (4S,5S)-5-amino-7-ethyl-4-(4-fluorophenyl)-3-methyl-1-phenyl-1H,4H,5H,6H,7H-pyrazolo[3,4-b]pyridin-6-one], above 36500 nM; as for `CCN1C(=O)[C@@H](NC(=O)c2cccc(C(F)(F)F)c2)[C@@H](c2ccc(F)cc2)c2c(COC(C)=O)nn(-c3ccccc3)c21` [RG-0013839, [(4S,5S)-7-ethyl-4-(4-fluorophenyl)-6-oxo-1-phenyl-5-[3-(trifluoromethyl)benzamido]-1H,4H,5H,6H,7H-pyrazolo[3,4-b]pyridin-3-yl]methyl acetate], 116 ± 13.2 nM. As to `CC(=O)NCN1C(=O)[C@@H](NC(=O)c2cccc(C(F)(F)F)c2)[C@@H](c2ccc(F)cc2)c2c(C)nn(-c3ccccc3)c21` [RG-0013840, N-[(4S,5S)-7-(acetamidomethyl)-4-(4-fluorophenyl)-3-methyl-6-oxo-1-phenyl-1H,4H,5H,6H,7H-pyrazolo[3,4-b]pyridin-5-yl]-3-(trifluoromethyl)benzamide], the EC50 is above 36500 nM. As for `COC(=O)CN1C(=O)[C@@H](NC(=O)c2cccc(C(F)(F)F)c2)[C@@H](c2ccc(F)cc2)c2c(C)nn(-c3ccccc3)c21` [RG-0013841, methyl 2-[(4S,5S)-4-(4-fluorophenyl)-3-methyl-6-oxo-1-phenyl-5-[3-(trifluoromethyl)benzamido]-1H,4H,5H,6H,7H-pyrazolo[3,4-b]pyridin-7-yl]acetate], the figure is 5540 ± 1080 nM. Then `CCN1C(=O)[C@@H](NC(=O)c2cccc([N+](=O)[O-])c2)[C@@H](c2ccc(F)cc2)c2c(C)nn(-c3ccccc3)c21` [RG-0013844, N-[(4S,5S)-7-ethyl-4-(4-fluorophenyl)-3-methyl-6-oxo-1-phenyl-1H,4H,5H,6H,7H-pyrazolo[3,4-b]pyridin-5-yl]-3-nitrobenzamide], with 1980 ± 134 nM. As for `CCN1C(=O)[C@@H](NC(=O)c2cccc(Oc3ccccc3)c2)[C@@H](c2ccc(F)cc2)c2c(C)nn(-c3ccccc3)c21` [RG-0013976, N-[(4S,5S)-7-ethyl-4-(4-fluorophenyl)-3-methyl-6-oxo-1-phenyl-1H,4H,5H,6H,7H-pyrazolo[3,4-b]pyridin-5-yl]-3-phenoxybenzamide], the EC50 turned out to be 5930 ± 606 nM. Then `CCN1C(=O)[C@@H](NC(=O)c2cccc(S(C)(=O)=O)c2)[C@@H](c2ccc(F)cc2)c2c(C)nn(-c3ccccc3)c21` [RG-0013977, N-[(4S,5S)-7-ethyl-4-(4-fluorophenyl)-3-methyl-6-oxo-1-phenyl-1H,4H,5H,6H,7H-pyrazolo[3,4-b]pyridin-5-yl]-3-methanesulfonylbenzamide], with above 36500 nM. On to `CCN1C(=O)[C@@H](NC(=O)c2cccc(-c3ccccc3)c2)[C@@H](c2ccc(F)cc2)c2c(C)nn(-c3ccccc3)c21` [RG-0013978, N-[(4S,5S)-7-ethyl-4-(4-fluorophenyl)-3-methyl-6-oxo-1-phenyl-1H,4H,5H,6H,7H-pyrazolo[3,4-b]pyridin-5-yl]-[1,1′-biphenyl]-3-carboxamide], for which the EC50 turned out to be 1310 ± 97.3 nM. For the molecule `CCN1C(=O)[C@@H](NC(=O)c2cccc(OC)c2)[C@@H](c2ccc(F)cc2)c2c(C)nn(-c3ccccc3)c21` [RG-0013979, N-[(4S,5S)-7-ethyl-4-(4-fluorophenyl)-3-methyl-6-oxo-1-phenyl-1H,4H,5H,6H,7H-pyrazolo[3,4-b]pyridin-5-yl]-3-methoxybenzamide], the EC50 came out at 629 ± 64.8 nM. As to `Cc1nn(-c2ccccc2)c2c1[C@H](c1ccc(F)cc1)[C@H](NC(=O)c1cccc(C(F)(F)F)c1)C(=O)N2CO` [RG-0013981, N-[(4S,5S)-4-(4-fluorophenyl)-7-(hydroxymethyl)-3-methyl-6-oxo-1-phenyl-1H,4H,5H,6H,7H-pyrazolo[3,4-b]pyridin-5-yl]-3-(trifluoromethyl)benzamide], the EC50 is above 36500 nM.

As for `CCN1C(=O)[C@@H](NC(=O)c2cccc(C(F)(F)F)c2)[C@@H](c2cc(C)cs2)c2c(C)nn(-c3ccccc3)c21` [RG-0013987, N-[(4S,5S)-7-ethyl-3-methyl-4-(4-methylthiophen-2-yl)-6-oxo-1-phenyl-1H,4H,5H,6H,7H-pyrazolo[3,4-b]pyridin-5-yl]-3-(trifluoromethyl)benzamide], the EC50 worked out at 3100 ± 559 nM. As for `CCN1C(=O)[C@@H](NC(=O)c2cccc(C(F)(F)F)c2)[C@@H](c2cccs2)c2c(C)nn(-c3ccccc3)c21` [RG-0013988, N-[(4S,5S)-7-ethyl-3-methyl-6-oxo-1-phenyl-4-(thiophen-2-yl)-1H,4H,5H,6H,7H-pyrazolo[3,4-b]pyridin-5-yl]-3-(trifluoromethyl)benzamide], the figure is 1330 ± 50.7 nM. Then `CCN1C(=O)[C@@H](NC(=O)c2cccc(C(F)(F)F)c2)[C@@H](c2ccc(F)c(C(F)(F)F)c2)c2c(C)nn(-c3ccccc3)c21` [RG-0013990, N-[(4S,5S)-7-ethyl-4-[4-fluoro-3-(trifluoromethyl)phenyl]-3-methyl-6-oxo-1-phenyl-1H,4H,5H,6H,7H-pyrazolo[3,4-b]pyridin-5-yl]-3-(trifluoromethyl)benzamide], with 4810 ± 152 nM; and `CCN1C(=O)[C@@H](NC(=O)c2cccc(C(F)(F)F)c2)[C@@H](c2ccc(F)nc2)c2c(CO)nn(-c3ccccc3)c21` [RG-0013992, N-[(4S,5S)-7-ethyl-4-(6-fluoropyridin-3-yl)-3-(hydroxymethyl)-6-oxo-1-phenyl-1H,4H,5H,6H,7H-pyrazolo[3,4-b]pyridin-5-yl]-3-(trifluoromethyl)benzamide], with 157 ± 19.2 nM.

The values are drawn from US12409171B2, “Pharmaceutically active pyrazolo-pyridone modulators of DCN1/2-mediated cullin neddylation” (UNIVERSITY OF KENTUCKY RESEARCH FOUNDATION, priority 2019, dated 2025).
